Test results published in EP0374249A1, “METHOD OF STERILIZING PLANT POLLEN” (VSESOJUZNY NAUCHNO-ISSLEDOVATELSKY INST. SELSKOKHOZYAISTV. …, priority 1988, dated 1989).

Key:
[1] = test system: diploidem Roggen Sorte Talovskaya 12; test: Field test of pollen sterilisation, diploid rye Talovskaya 12; type: in vivo; details: 1% aqueous emulsion, 6 kg/ha; for Prozentsatz der Sterilität / Anzahl von Körnern der Ähre bei freier Bestäubung / Anzahl von Körnern der Ähre im Isolator: period V of organogenesis; for Anzahl von Körnern der Ähre bei freier Bestäubung: free pollination; for Anzahl von Körnern der Ähre im Isolator: isolated ears
Excerpt: (§6) Mit dem Ahrenschiebe verwirklicht man die Isolierung von Hauptähren und anderen Stockwerken in Pergamentbeuteln. […] Bei Roggen schliesst man je Ähre 5 bis 7 verschiedene nebeneinander befindliche Pflanzen unter einen gemeinsamen Isolator ein. […] Der Sterilitätsprozentsatz (X) für Weizen, Roggen, Tritikale und Hirse wird nach folgender Formel [formula] ermittelt.
Pflanzen von diploidem Roggen Sorte Talovskaya 12 werden in der V. Periode der Organogenese (nach Kupermann) mit einer 1%igen wässrigen Emulsion von N-(2-Di- methylaminoäthyl)-maleaminsäure, N-(3-Dimethylaminopropyl)-maleaminsäure, N-Äthylmaleaminsäure, N-(2-Hydroxyäthyl)maleaminsäure, N-Karbamoylmaleaminsäure behandelt. Die Emulsion enthält 0,01 Masse% Dodezylsulfat und 0,1 Masse% Kalziumalkylbenzolsulfonat mit 12 bis _14 Kohlenstoffatomen. Der Verbrauch an Präparat beträgt 6 kg/ha. Als Kontrolle dienen Pflanzen, behandelt mit einem Verdünner ohne Sterilisationsmittel.

[2] = test system: Hirse Sorte Mironovskoe 94; test: Field test of pollen sterilisation, millet Mironovskoe 94; type: in vivo; details: 1% aqueous emulsion, 8 kg/ha; for Prozentsatz der Sterilität / Anzahl von Körnern der Rispe bei freier Bestäubung / Anzahl von Körnern der Rispe im Isolator: period V of organogenesis; for Anzahl von Körnern der Rispe bei freier Bestäubung: free pollination; for Anzahl von Körnern der Rispe im Isolator: isolated panicles; for Prozentsatz des Ansetzens von Körnern bei freier Bestäubung: period V, non-isolated control = 100%
Excerpt: (§1) Die gametozide Aktivität der erfindungsgemässen Sterilisationsmittel war im Feldversuch in verschiedenen Bodenklimatischen Zonen mit Teilstücken von 10 m^2 Grösse in drei- bis viermaliger Wiederholung nachgewiesen. Jedes Sterilisationsmittel wurde mindestens 5 Jahre lang geprüft.
(§2) Die Entwicklung der Perioden der Organogenese wird zytologischüberwacht. Die Behandlung von Pflanzen mit dem Sterilisationsmittel erfolgt am Anfang der fünften Periode der Organogenese nach Kupermann.
(§3) Mit dem Ahrenschiebe verwirklicht man die Isolierung von Hauptähren und anderen Stockwerken in Pergamentbeuteln. Bei Weizen und Tritikale werden Einzelisolatoren verwendet. Bei Roggen schliesst man je Ähre 5 bis 7 verschiedene nebeneinander befindliche Pflanzen unter einen gemeinsamen Isolator ein. Bei Hirse wird jede Rispe getrennt isoliert. Der Sterilitätsprozentsatz (X) für Weizen, Roggen, Tritikale und Hirse wird nach folgender Formel [formula] ermittelt.
(§4) Die Kornzahl in nicht isolierten ähren von Kontrollpflanzen wird bedingt für 100% Ansetzen bei freier Bestäubung angenommen.
(§5) Um zuverlässige Angaben zu erhalten, verwendet man 20 bis 25 Isolatoren jeder Wiederholung für Weisen und Tritikale, 10 bis 15 Gruppenisolatoren jeder Wiederholung für Roggen und Hirse.
Pflanzen der Hirse Sorte Mironovskoe 94 werden in der V. Periode der Organogenese (nach Kupermann) mit einer 1%igen wässrigen Emulsion von N-(2-Dimethylaminoäthyl)maleaminsäure, N-(3-Dimethylaminopropyl)maleaminsäure, N-Äthylmaleaminsäure, N-(2-Hydroxyäthyl)maleaminsäure, N-Karbamoylmaleaminsäure behandelt. Die Emulsion enthält 0,01 Masse% Dimethylaulfoxid und 0,1 Masse% Kalziumalkylbenzolsulfonat mit 12 bis 14 Kohlenstoffatomen. Der Verbrauch an Präparat beträgt 8 kg/ha. Als Kontrolle dienen Pflanzen, behandelt mit einem Verdünner ohne Sterilisationsmittel. Die Prüfergebnisse sind in der Tabelle 12 dargestellt. […] Periode der Organogenese erhalten.

[3] = Toxicity test in animals (LD50); details: in vivo; animal test, per kg animal weight; species and route not given
Excerpt: Alle erfindungsgemässen N-substituierten Maleaminsäuren, welche als Sterilisationsmittel zur Verwendung kommen, waren auf die Toxizität im Tierversuch geprüft. Die Prüfergebnisse haben ergeben, dass die angegebenen Verbindungen von schwacher oder mittlerer Toxizität sind.

[4] = test system: diploidem Roggen Sorte Voskhod 2; test: Field test of pollen sterilisation, diploid rye Voskhod 2; type: in vivo; details: 1% aqueous emulsion, 10 kg/ha; for Prozentsatz der Sterilität / Anzahl von Körnern der Ähre bei freier Bestäubung / Anzahl von Körnern der Ähre im Isolator: period V of organogenesis; for Anzahl von Körnern der Ähre bei freier Bestäubung: free pollination; for Anzahl von Körnern der Ähre im Isolator: isolated ears; for Prozentsatz des Ansetzens von Körnern bei freier Bestäubung: period V, non-isolated control ears = 100%
Excerpt: Die Emulsion enthält 0,1 Masse% Kalziumalkylbenzolsulfonat und 0,01 Masse% Dimethylformamid. Der Verbrauch an Präparat beträgt 10 kg/ha. Als Kontrolle dienen Pflanzen, behandelt mit einem Lösungsmittel ohne Sterilisationsmittel.

[5] = test system: Winterweizens Sorte Bezostaya 1; test: Field test of pollen sterilisation, winter wheat Bezostaya 1; type: in vivo, Winterweizen; details: 2% aqueous emulsion, 16 kg/ha; for Prozentsatz der Sterilität / Anzahl von Körnern der Ähre bei freier Bestäubung / Anzahl von Körnern der Ähre im Isolator: period V of organogenesis; for Anzahl von Körnern der Ähre bei freier Bestäubung: free pollination; for Anzahl von Körnern der Ähre im Isolator: isolated ears; for Prozentsatz des Ansetzens von Körnern bei breier Bestäubung: period V, non-isolated control ears = 100%
Excerpt: Pflanzen des Winterweizens Sorte Bezostaya 1 werden in der V. Periode der Organogenese durch Zerstäubung einer 2%igen wässrigen Emulsion von N-(2-Dimethylaminoäthyl)-maleaminsäure, N-(3-Dimethylaminopropyl)-maleaminsäure, N-Äthylmaleaminsäure, N-(2-Hydroxyäthyl)-maleaminsäure, N-Karbamoylmaleaminsäure mit Hilfe deiner Rückspritze behandelt. Die Emulsion enthält 0,1 Masse% Kalziumalkylbenzolsulfonat mit 12 bis 14 Kohlenstoffatomen. Als Adjuvans führt man in die Emulsion 0,01 Masse% Tetrahydrofuran ein.
Der Verbrauch an Präparat beträgt 16 kg/ha. Als Kontrolle dienen Pflanzen, behandelt mit einem Verdünner ohne Sterilisationsmitteln.

[6] = test system: Sommerweizens Sorte Botanicheskaya 4; test: Field test of pollen sterilisation, spring wheat Botanicheskaya 4; type: in vivo, Sommerweizen; details: 1% aqueous emulsion, 6 kg/ha; for Prozentsatz der Sterilität / Anzahl von Körnern der Ähre bei freier Bestäubung / Anzahl von Körnern der Ähre im Isolator: period V of organogenesis; for Anzahl von Körnern der Ähre bei freier Bestäubung: free pollination; for Anzahl von Körnern der Ähre im Isolator: isolated ears; for Prozentsatz des Ansetzens von Körnern bei freier Bestäubung: period V, non-isolated control ears = 100%
Excerpt: Pflanzen des Sommerweizens Sorte Botanicheskaya 4 werden in der V. Periode der Organogenese (nach Kupermann) mit einer 1%igen Wässrigen Emulsion von N-(2-Dimethyl-aminoäthyl)-maleaminsäure, N-(3-Dimethylaminopropyl)-maleaminsäure, N-Äthylmaleaminsäure, N-(2-Hydroxyäthyl)-maleaminsäure bzw. N-Karbamoylmaleaminsäure behandelt. Die Emulsion enthält 0,5 Masse% Kalziumalkylbenzolsulfonat mit 12 bis 14 Kohlenstoffatomen und 0,01 Masse% Dimethylsulfoxid als Adjuvans. Der Verbrauch an Präparat beträgt 6 kg/ha. Als Kontrolle dienen Pflanzen, behandelt mit einem Verdünner ohne Sterilisationsmittel.

[7] = test system: Sommerweizens Sorte Moskovskaya 35; test: Field test of pollen sterilisation, spring wheat Moskovskaya 35; type: in vivo, Sommerweizen; details: 1% aqueous emulsion, 10 kg/ha; for Prozentsatz der Sterilität / Anzahl von Körnern der Ähre bei freier Bestäubung / Anzahl von Körnern der Ähre im Isolator: period V of organogenesis; for Anzahl von Körnern der Ähre bei freier Bestäubung: free pollination; for Anzahl von Körnern der Ähre im Isolator: isolated ears; for Prozentsatz des Ansetzens von Körnern bei freier Bestäubung: period V, non-isolated control ears = 100%
Excerpt: Pflanzen des Sommerweizens Sorte Moskovskaya 35 werden in V. Periode der Organogenese (nach Kupermann) mit einer 1%igen wässrigen Emulsion von N-(2-Dimethyl-aminoäthyl)-maleaminsäure, N-(3-Dimethylaminopropyl)-maleaminsäure, N-Äthylmaleaminsäure, N-(2-Hydroxyäthyl) maleaminsäure bzw. N-Karbamoylmaleaminsäure behandelt. Die Emulsion enthält 0,5 Masse% Kalziumalkylbenzolsulfonat mit 12 bis 14 Kohlenstoffatomen als Emulgierungsmittel und 0,01 Masse% Dimethylformamid als Adjuvans. Der Verbrauch an Präparat beträgt 10 kg/ha. Als Kontrolle dienen Pflanzen, behandelt mit einem Verdünner ohne Sterilisationsmittel.

[8] = test system: tetraploidem Roggen Sorte Belta; test: Field test of pollen sterilisation, tetraploid rye Belta; type: in vivo; details: 1% aqueous emulsion, 10 kg/ha; for Prozentsatz der Sterilität / Anzahl von Körnern der Ähre bei freier Bestäubung / Anzahl von Körnern der Ähre im Isolator: period V of organogenesis; for Anzahl von Körnern der Ähre bei freier Bestäubung: free pollination; for Anzahl von Körnern der Ähre im Isolator: isolated ears; for Prozentsatz des Ansetzens von Körnern bei freier Bestäubung: period V, non-isolated control ears = 100%
Excerpt: as §1, §2, §3, §4, §5
Pflanzen von tetraploidem Roggen Sorte Belta werden in der V. Periode der Organogenese (nach Kupermann) mit einer 1%igen wässrigen Emulsion von N-(2-Dimethylamino- .äthyl)maleaminsäure, N-(3-Dimethylaminopropyl)maleaminsäure, N-Äthylmaleaminsäure, N-(2-Hydroxyäthyl)maleaminsäure bzw. Karbamoylmaleaminsäure behandelt. Die Emulsion enthält 0,5 Masse% Kalziumalkylbenzolsulfonat mit 12 bis 14 Kohlenstoffatomen und 0,01 Masso% Tetrahydrofuran. Der Verbrauch an Präparat beträgt 10 kg/ha. Die Prüfergebnisse sind in der Tabelle 5 dargestellt. […] Periode der Organogenese erhalten.

[9] = test system: Winterweizens Sorte Mir.onovskaya 808; test: Field test of pollen sterilisation (gametocidal activity), winter wheat Mironovskaya 808; type: in vivo, Winterweizen; details: 2% aqueous emulsion, 20 kg/ha; for Prozentsatz der Sterilität / Anzahl von Körnern der Ähre bei freier Bestäubung / Anzahl von Körnern der Ähre im Isolator: period V of organogenesis; for Anzahl von Körnern der Ähre bei freier Bestäubung: free pollination; for Anzahl von Körnern der Ähre im Isolator: isolated ears; for Prozentsatz des Ansetzens von Körnern bei freier Bestäubung: period V, non-isolated control ears = 100%
Excerpt: Als Emulgierungsmittel wird 0,1 Masse% Kalziumalkylbenzolsulfonat mit 12 bis 14 Kohlenstoffatomen hinzugefügt. Als Adjuvans fährt man in die Emulsion 0,01 Masse% Dimethylsulfoxid ein. Der Verbrauch an Präparat beträgt 20 kg/ha. Als Kontrolle dienen Pflanzen, behandelt mit einem Verdünner ohne Sterilisationsmittel.

[10] = test system: diploidem Roggen Sorte Chulpan; test: Field test of pollen sterilisation, diploid rye Chulpan; type: in vivo; details: 1% aqueous emulsion, 8 kg/ha; for Prozentsatz der Sterilität / Anzahl von Körnern der Ähre bei freier Bestäubung / Anzahl von Körnern der Ähre im Isolator: period V of organogenesis; for Anzahl von Körnern der Ähre bei freier Bestäubung: free pollination; for Anzahl von Körnern der Ähre im Isolator: isolated ears; for Prozentsatz des Ansetzens von Körnern bei freier Bestäubung: period V, non-isolated control ears = 100%
Excerpt: as §6
Die Emulsion enthält 0,01 Masse% Tetranydrofuran und 0,1 Masse% Kalziumalkylbenzolsulfonat mit 12 bis 14 Kohlenstoffatomen. Der Verbrauch an Präparat beträgt 8 kg/ha. Als Kontrolle dienen Pflanzen, behandelt mit einem Verdünner ohne Sterilisationsmittel.

[11] = test system: Hirse Sorte K-9693 Kormovoe 1; test: Field test of pollen sterilisation, millet K-9693 Kormovoe 1; type: in vivo; details: 1% aqueous emulsion, 6 kg/ha; for Prozentsatz der Sterilität / Anzahl von Körnern der Rispe bei freier Bestäubung / Anzahl von Körnern der Rispe im Isolator: period V of organogenesis; for Anzahl von Körnern der Rispe bei freier Bestäubung: free pollination; for Anzahl von Körnern der Rispe im Isolator: isolated panicles; for Prozentsatz des Ansetzens von Körnern bei freier Bestäubung: period V, non-isolated control = 100%
Excerpt: as §1, §2, §3, §4, §5
Pflanzen der Hirse Sorte K-9693 Kormovoe 1 werden in der V. Periode der Organogenese (nach Kupermann) mit einer 1%igen wässrigen Emulsion von N-(2-Dimethylaminoäthyl) maleaminsäure, N-(3-Dimethylaminopropyl)maleaminsäure, N-Äthylmaleaminsäure, N-Karbamoylmaleaminsäure behandelt. Die Emulsion enthält 0,01 Masse% Dimethylformamid und 0,1 Masse% Kalziumalkylbenzolsulfonat mit 12 bis 14 Kohlenstoffatomen.
Der Verbrauch an Präparat beträgt 6 kg/ha. Als Kontrolle dienen Pflanzen, behandelt mit einem Verdünner ohne Sterilisationsmittel. Die Prüfergebnisse sind in der Tabelle13 dargestellt. […] Periode der Organogenese erhalten.

Structure (SMILES): CCNC(=O)/C=C\C(=O)O [Beispiel 3, N-Äthylmaleaminsäure]
- Prozentsatz der Sterilität [1]: 100,0%
- Anzahl von Körnern der Ähre bei freier Bestäubung [1]: 50,1
- Anzahl von Körnern der Ähre im Isolator [1]: 0,0
- Prozentsatz der Sterilität [2]: 100,0%
- Anzahl von Körnern der Rispe bei freier Bestäubung [2]: 200,8
- Anzahl von Körnern der Rispe im Isolator [2]: 0,0
- Prozentsatz des Ansetzens von Körnern bei freier Bestäubung [2]: 88,3%
- LD50 [3]: 2000 mg/kg
- Prozentsatz der Sterilität [4]: 100,0%
- Anzahl von Körnern der Ähre bei freier Bestäubung [4]: 53,0
- Anzahl von Körnern der Ähre im Isolator [4]: 0,0
- Prozentsatz des Ansetzens von Körnern bei freier Bestäubung [4]: 96,0%
- Prozentsatz der Sterilität [5]: 99,4%
- Anzahl von Körnern der Ähre bei freier Bestäubung [5]: 42,1
- Anzahl von Körnern der Ähre im Isolator [5]: 0,2
- Prozentsatz des Ansetzens von Körnern bei breier Bestäubung [5]: 98,1%
- Prozentsatz der Sterilität [6]: 100,0%
- Anzahl von Körnern der Ähre bei freier Bestäubung [6]: 28,2
- Anzahl von Körnern der Ähre im Isolator [6]: 0,0
- Prozentsatz des Ansetzens von Körnern bei freier Bestäubung [6]: 93,7%
- Prozentsatz der Sterilität [7]: 98,5%
- Anzahl von Körnern der Ähre bei freier Bestäubung [7]: 26,7
- Anzahl von Körnern der Ähre im Isolator [7]: 0,4
- Prozentsatz des Ansetzens von Körnern bei freier Bestäubung [7]: 97,1%
- Prozentsatz der Sterilität [8]: 99,4%
- Anzahl von Körnern der Ähre bei freier Bestäubung [8]: 52,3
- Anzahl von Körnern der Ähre im Isolator [8]: 0,3
- Prozentsatz des Ansetzens von Körnern bei freier Bestäubung [8]: 95,4%
- Prozentsatz der Sterilität [9]: 99,5%
- Anzahl von Körnern der Ähre bei freier Bestäubung [9]: 40,7
- Anzahl von Körnern der Ähre im Isolator [9]: 0,2
- Prozentsatz des Ansetzens von Körnern bei freier Bestäubung [9]: 95,5%
- Prozentsatz der Sterilität [10]: 99,4%
- Anzahl von Körnern der Ähre bei freier Bestäubung [10]: 49,8
- Anzahl von Körnern der Ähre im Isolator [10]: 0,3
- Prozentsatz des Ansetzens von Körnern bei freier Bestäubung [10]: 87,7%

Structure (SMILES): CCNC(=O)/C=C\C(=O)O [Beispiel 56, N-Äthylmaleaminsäure]
- Prozentsatz der Sterilität [11]: 100,0%
- Anzahl von Körnern der Rispe bei freier Bestäubung [11]: 114,7
- Anzahl von Körnern der Rispe im Isolator [11]: 0,0
- Prozentsatz des Ansetzens von Körnern bei freier Bestäubung [11]: 78,2%

Structure (SMILES): CN(C)CCCNC(=O)/C=C\C(=O)O [Beispiel 55, N-(3-Dimethylaminopropyl)maleaminsäure]
- Prozentsatz der Sterilität [11]: 100,0%
- Anzahl von Körnern der Rispe bei freier Bestäubung [11]: 100,8
- Anzahl von Körnern der Rispe im Isolator [11]: 0,0
- Prozentsatz des Ansetzens von Körnern bei freier Bestäubung [11]: 68,7%

Structure (SMILES): CN(C)CCNC(=O)/C=C\C(=O)O [Beispiel 54, N-(2-Dimethylaminoäthyl) maleaminsäure]
- Prozentsatz der Sterilität [11]: 100,0%
- Anzahl von Körnern der Rispe bei freier Bestäubung [11]: 124,2
- Anzahl von Körnern der Rispe im Isolator [11]: 0,0
- Prozentsatz des Ansetzens von Körnern bei freier Bestäubung [11]: 84,7%

Structure (SMILES): O=C(O)/C=C\C(=O)NCCO [Beispiel 4, N-(2-Hydroxyäthyl)-maleaminsäure]
- Prozentsatz der Sterilität [1]: 99,3%
- Anzahl von Körnern der Ähre bei freier Bestäubung [1]: 53,2
- Anzahl von Körnern der Ähre im Isolator [1]: 0,3
- Prozentsatz des Ansetzens von Körnern bei freier Bestäubung ([1]; period V, non-isolated control ears = 100%): 94,7%
- Prozentsatz der Sterilität [2]: 100,0%
- Anzahl von Körnern der Rispe bei freier Bestäubung [2]: 215,0
- Anzahl von Körnern der Rispe im Isolator [2]: 0,0
- Prozentsatz des Ansetzens von Körnern bei freier Bestäubung [2]: 94,6%
- LD50 [3]: 1500 mg/kg
- Prozentsatz der Sterilität [4]: 98,4%
- Anzahl von Körnern der Ähre bei freier Bestäubung [4]: 52,2
- Anzahl von Körnern der Ähre im Isolator [4]: 0,8
- Prozentsatz des Ansetzens von Körnern bei freier Bestäubung [4]: 94,6%
- Prozentsatz der Sterilität [5]: 100,0%
- Anzahl von Körnern der Ähre bei freier Bestäubung [5]: 37,1
- Anzahl von Körnern der Ähre im Isolator [5]: 0,0
- Prozentsatz des Ansetzens von Körnern bei breier Bestäubung [5]: 86,5%
- Prozentsatz der Sterilität [6]: 100,0%
- Anzahl von Körnern der Ähre bei freier Bestäubung [6]: 28,7
- Anzahl von Körnern der Ähre im Isolator [6]: 0,0
- Prozentsatz des Ansetzens von Körnern bei freier Bestäubung [6]: 95,3%
- Prozentsatz der Sterilität [7]: 100,0%
- Anzahl von Körnern der Ähre bei freier Bestäubung [7]: 27,0
- Anzahl von Körnern der Ähre im Isolator [7]: 0,0
- Prozentsatz des Ansetzens von Körnern bei freier Bestäubung [7]: 98,2%
- Prozentsatz der Sterilität [8]: 99,6%
- Anzahl von Körnern der Ähre bei freier Bestäubung [8]: 51,6
- Anzahl von Körnern der Ähre im Isolator [8]: 0,2
- Prozentsatz des Ansetzens von Körnern bei freier Bestäubung [8]: 94,2%
- Prozentsatz der Sterilität [9]: 99,3%
- Anzahl von Körnern der Ähre bei freier Bestäubung [9]: 39,8
- Anzahl von Körnern der Ähre im Isolator [9]: 0,3
- Prozentsatz des Ansetzens von Körnern bei freier Bestäubung [9]: 93,4%
- Prozentsatz der Sterilität [10]: 99,8%
- Anzahl von Körnern der Ähre bei freier Bestäubung [10]: 50,1
- Anzahl von Körnern der Ähre im Isolator [10]: 0,1
- Prozentsatz des Ansetzens von Körnern bei freier Bestäubung [10]: 88,2%

Structure (SMILES): NC(=O)NC(=O)/C=C\C(=O)O [Beispiel 58, N-Karbamoylmaleaminsäure]
- Prozentsatz der Sterilität [11]: 100,0%
- Anzahl von Körnern der Rispe bei freier Bestäubung [11]: 133,6
- Anzahl von Körnern der Rispe im Isolator [11]: 0,0
- Prozentsatz des Ansetzens von Körnern bei freier Bestäubung [11]: 91,1%

Structure (SMILES): O=C(O)/C=C\C(=O)NCCO [Beispiel 57, N-(2-Hydroxyäthyl)maleaminsäure]
- Prozentsatz der Sterilität [11]: 100,0%
- Anzahl von Körnern der Rispe bei freier Bestäubung [11]: 127,2
- Anzahl von Körnern der Rispe im Isolator [11]: 0,0
- Prozentsatz des Ansetzens von Körnern bei freier Bestäubung [11]: 86,7%
